In ChEMBL document CHEMBL1201862, “PubChem BioAssay data set” (2004):
Calls of active or inactive are those of the source.

What was measured:
[1] = M. tuberculosis H37Rv growth inhibitors, H37Rv strain (AID 1626); format: functional
HeLa = test: Cytotoxicity counterscreen assay for transcriptional activators of heat shock protein 70 (Hsp70). [Related pubchem assays: 1203, 1252 ]; format: functional; settings: Homo sapiens;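 also: cells exposed to compound for 16 hours before readout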
[2] = Vero E6 cell cytotoxicity, dose response, cytotoxicity control for non-replicating M. tuberculosis project, secondary assay (AID 492998); format: functional, VeroE6; settings: Vero C1008
cells = format: functional
[3] = Luminescence-based counterscreen assay for KLF5 inhibitors: dose response cell-based high throughput screening assay to identify cytotoxic compounds using the IEC-6 intestinal epithelial cell line. [Related pubchem assays: 1700 (Primary screen.), 1834 (Confirmation screen.), 1858 (Summary AID.), 1905 (Counterscreen.)]; format: functional
[4] = target: T1, Sentrin-specific protease 7 (Homo sapiens, UniProt Q9BQF6); format: functional;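 also: Luminescence-based dose-response confirmation of ultra-high-throughput screening hits, measuring inhibition of SENP7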
T1 sequence (Q9BQF6 whole entry): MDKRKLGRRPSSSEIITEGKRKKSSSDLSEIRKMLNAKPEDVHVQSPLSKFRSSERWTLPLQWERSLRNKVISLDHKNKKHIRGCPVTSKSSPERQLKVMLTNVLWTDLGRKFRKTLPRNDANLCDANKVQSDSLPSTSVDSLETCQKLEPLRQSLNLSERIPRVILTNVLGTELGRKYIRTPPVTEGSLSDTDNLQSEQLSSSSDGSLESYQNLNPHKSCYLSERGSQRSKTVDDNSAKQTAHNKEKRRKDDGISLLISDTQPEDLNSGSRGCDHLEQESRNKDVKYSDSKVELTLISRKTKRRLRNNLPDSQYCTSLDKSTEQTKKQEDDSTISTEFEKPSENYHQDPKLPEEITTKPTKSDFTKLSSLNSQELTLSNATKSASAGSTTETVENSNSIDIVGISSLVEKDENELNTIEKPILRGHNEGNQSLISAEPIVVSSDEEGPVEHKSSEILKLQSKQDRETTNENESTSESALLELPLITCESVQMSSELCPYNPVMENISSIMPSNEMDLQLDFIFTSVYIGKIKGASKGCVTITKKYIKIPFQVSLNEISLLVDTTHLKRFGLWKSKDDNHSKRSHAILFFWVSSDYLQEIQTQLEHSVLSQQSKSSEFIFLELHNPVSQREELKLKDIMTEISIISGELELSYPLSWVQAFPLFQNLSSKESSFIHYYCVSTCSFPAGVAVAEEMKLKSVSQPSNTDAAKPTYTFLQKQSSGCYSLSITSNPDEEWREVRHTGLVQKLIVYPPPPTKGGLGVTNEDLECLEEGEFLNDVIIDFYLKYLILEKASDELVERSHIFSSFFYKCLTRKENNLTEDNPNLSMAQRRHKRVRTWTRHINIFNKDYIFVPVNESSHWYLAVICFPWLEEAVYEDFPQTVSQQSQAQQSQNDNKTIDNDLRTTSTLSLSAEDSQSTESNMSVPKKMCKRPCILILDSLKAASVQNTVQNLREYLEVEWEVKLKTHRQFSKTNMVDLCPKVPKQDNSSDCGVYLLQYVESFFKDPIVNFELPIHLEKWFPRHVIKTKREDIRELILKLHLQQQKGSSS

[5] = blockers of bursicon-stimulated LGR2 cAMP reporter – cell-based, HEK293, CRE-luciferase reporter, cherry pick, set 2, dose response (AID 743343); format: functional;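 also: transfected cells were stimulated with diluted bursicon conditioned medium after compound addition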
Trypsin = Trypsin (Sus scrofa, UniProt P00761); test: trypsin protease activity blockade – biochemical, quenched peptide fluorescence, cherry-pick, selectivity assay for Rce1 protease inhibitor project, dose response (AID 488789)
CAAX prenyl protease 2 = target: T2, CAAX prenyl protease 2 (Saccharomyces cerevisiae S288c, UniProt Q03530); format: biochemical
T2 sequence (Q03530 whole entry): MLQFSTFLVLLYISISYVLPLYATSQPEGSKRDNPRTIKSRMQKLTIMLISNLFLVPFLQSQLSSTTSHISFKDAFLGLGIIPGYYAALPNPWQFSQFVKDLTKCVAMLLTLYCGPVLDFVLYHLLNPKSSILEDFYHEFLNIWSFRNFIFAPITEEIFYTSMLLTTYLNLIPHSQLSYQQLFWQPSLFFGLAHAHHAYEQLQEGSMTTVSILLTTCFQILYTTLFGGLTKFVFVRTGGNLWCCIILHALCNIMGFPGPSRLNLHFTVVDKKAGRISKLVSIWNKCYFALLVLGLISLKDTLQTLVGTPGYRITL

[6] = target: T3, Sentrin-specific protease 6 (Homo sapiens, UniProt Q9GZR1); format: functional;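 also: Luminescence-based dose-response confirmatory assay of SENP6 inhibition, following up an ultra-high-throughput screen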
T3 sequence (Q9GZR1 whole entry): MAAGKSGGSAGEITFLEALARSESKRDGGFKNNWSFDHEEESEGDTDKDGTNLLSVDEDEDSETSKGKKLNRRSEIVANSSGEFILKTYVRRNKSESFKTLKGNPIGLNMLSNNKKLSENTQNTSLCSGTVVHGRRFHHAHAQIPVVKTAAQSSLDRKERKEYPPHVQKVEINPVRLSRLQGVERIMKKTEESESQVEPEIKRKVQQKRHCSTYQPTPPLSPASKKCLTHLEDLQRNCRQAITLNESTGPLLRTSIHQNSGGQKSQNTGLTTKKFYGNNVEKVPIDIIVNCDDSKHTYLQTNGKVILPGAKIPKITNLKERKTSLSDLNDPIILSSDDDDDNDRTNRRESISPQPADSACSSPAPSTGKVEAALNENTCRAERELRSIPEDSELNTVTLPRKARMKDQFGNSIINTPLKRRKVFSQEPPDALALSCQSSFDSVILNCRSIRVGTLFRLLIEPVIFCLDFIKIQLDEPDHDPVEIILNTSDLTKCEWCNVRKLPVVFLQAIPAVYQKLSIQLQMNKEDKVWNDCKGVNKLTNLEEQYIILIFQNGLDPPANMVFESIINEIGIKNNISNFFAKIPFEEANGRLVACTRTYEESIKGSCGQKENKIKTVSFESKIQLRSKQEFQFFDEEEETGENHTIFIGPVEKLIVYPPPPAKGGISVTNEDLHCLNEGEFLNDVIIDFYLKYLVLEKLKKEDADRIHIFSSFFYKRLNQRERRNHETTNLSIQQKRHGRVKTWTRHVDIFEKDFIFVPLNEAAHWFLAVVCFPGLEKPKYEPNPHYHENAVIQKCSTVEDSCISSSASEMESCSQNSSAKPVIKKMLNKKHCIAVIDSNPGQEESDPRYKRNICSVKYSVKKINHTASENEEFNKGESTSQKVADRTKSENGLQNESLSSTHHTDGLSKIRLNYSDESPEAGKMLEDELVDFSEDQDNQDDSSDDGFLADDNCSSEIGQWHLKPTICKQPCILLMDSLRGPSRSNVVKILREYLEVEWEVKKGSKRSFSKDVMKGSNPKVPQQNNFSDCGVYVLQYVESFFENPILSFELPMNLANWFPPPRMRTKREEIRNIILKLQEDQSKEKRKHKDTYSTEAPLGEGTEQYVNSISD

[7] = blockade of melanocortin 4 receptor signaling – cell-based, plate reader, cherry pick, counter-screen for LGR2 antagonist project, dose response (AID 743444); format: functional;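 also: transfected HEK 293 cells stimulated with alpha-MSH peptide; potency of inhibitors of the alpha-MSH evoked signal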
[8] = target: T4, Sentrin-specific protease 8 (Homo sapiens, UniProt Q96LD8); format: functional;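 also: luminescence read-out of SENP8 inhibition, dose-response confirmation following an ultra-high-throughput screen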
T4 sequence (Q96LD8 whole entry): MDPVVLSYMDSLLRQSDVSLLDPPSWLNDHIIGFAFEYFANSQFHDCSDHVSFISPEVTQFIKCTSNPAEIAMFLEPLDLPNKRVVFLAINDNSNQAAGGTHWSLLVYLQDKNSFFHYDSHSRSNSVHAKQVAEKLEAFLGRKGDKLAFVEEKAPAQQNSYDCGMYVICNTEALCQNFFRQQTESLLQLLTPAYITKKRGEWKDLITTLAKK

Caspase-3 = target: T5, Caspase-3 (Homo sapiens, UniProt P42574); format: functional;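 also: Dose-response selectivity test against caspase-3 for candidate inhibitors of sentrin-specific proteases (SENPs)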
T5 sequence (P42574 whole entry): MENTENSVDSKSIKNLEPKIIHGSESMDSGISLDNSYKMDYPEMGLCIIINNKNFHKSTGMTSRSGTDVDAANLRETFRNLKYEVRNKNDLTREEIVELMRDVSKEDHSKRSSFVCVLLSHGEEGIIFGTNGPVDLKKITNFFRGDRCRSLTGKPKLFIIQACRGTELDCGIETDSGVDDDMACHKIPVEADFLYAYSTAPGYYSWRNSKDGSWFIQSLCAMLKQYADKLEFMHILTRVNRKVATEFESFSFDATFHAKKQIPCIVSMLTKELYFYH

Bcl-2-like protein 10 = Bcl-2-like protein 10 (Homo sapiens, UniProt Q9HD36); test: Concentration-response of Bcl-B inhibitors by biochemical FP with TR3 (AID 1243); format: functional
NADPH oxidase 1 = NADPH oxidase 1 (Homo sapiens, UniProt Q9Y5S8); format: functional, cell-based;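 also: Cell-based assay with luminescence read-out, IC50 derived from inhibitor dose-response curves; intracellular ROS from endogenous NOX1 in intact HT29 colon cancer cells; potency of inhibitors that lower the ROS luminescence signal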
[9] = target: Lytic switch protein BZLF1 (Epstein-Barr virus (strain B95-8) (HHV-4) (Human herpesvirus 4), UniProt P03206); test: inhibition of BZLF1 ZTA DNA binding – biochemical, fluorescence polarization, Epstein-Barr virus, 1536-well, counter-screen for EBNA-1 inhibitor project, dose response (AID 2377); parameters: species or system human gammaherpesvirus 4;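 also: fluorescence polarization of Cy5-labelled ZRE DNA probe bound by purified Zta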
[10] = target: Epstein-Barr nuclear antigen 1 (Epstein-Barr virus (strain B95-8) (HHV-4) (Human herpesvirus 4), UniProt P03211); test: inhibition of EBV nuclear antigen 1 DNA binding – biochemical, fluorescence polarization, 1536-well, dose response (AID 2381); parameters: species or system human gammaherpesvirus 4;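 also: fluorescence polarization of a Cy5 DNA probe bound by EBNA-1 protein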
[11] = target: T6, Neuropeptide Y receptor type 2 (Homo sapiens, UniProt P49146); test: IC50 for human NPY-Y2 blockade – cell-based, counter-screen for NPY-Y1 antagonist project, dose response (AID 1278); format: functional
[12] = target: T7, Neuropeptide Y receptor type 1 (Homo sapiens, UniProt P25929); test: IC50 of human NPY-Y1 blockers – cell-based, dose response (AID 1277); format: functional
[13] = target: FAD-linked sulfhydryl oxidase ALR (Homo sapiens, UniProt P55789); test: ALR-catalysed DTT oxidation blockers – biochemical, H2O2 detection, luminescence, cherry-pick, dose response (AID 493248)
[14] = target: T8, Mannose-6-phosphate isomerase (Homo sapiens, UniProt P34949); test: MPI inhibition at elevated mannose 6-phosphate – biochemical, fluorescence intensity, high mannose 6-phosphate, primary screen (AID 1220)
T8 sequence (P34949 whole entry): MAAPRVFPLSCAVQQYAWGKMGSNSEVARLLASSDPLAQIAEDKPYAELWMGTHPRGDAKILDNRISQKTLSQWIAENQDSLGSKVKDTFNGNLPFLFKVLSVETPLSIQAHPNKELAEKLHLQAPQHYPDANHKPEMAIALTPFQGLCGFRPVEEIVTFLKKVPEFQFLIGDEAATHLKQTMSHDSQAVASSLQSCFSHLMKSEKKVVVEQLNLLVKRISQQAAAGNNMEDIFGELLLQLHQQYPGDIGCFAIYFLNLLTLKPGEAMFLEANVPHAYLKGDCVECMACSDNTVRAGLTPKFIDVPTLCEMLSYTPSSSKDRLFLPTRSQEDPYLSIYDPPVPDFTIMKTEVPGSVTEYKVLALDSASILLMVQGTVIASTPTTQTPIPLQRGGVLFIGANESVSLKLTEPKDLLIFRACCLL

[15] = target: T8, Mannose-6-phosphate isomerase; test: MPI enzyme activity inhibition – biochemical, fluorescence intensity, coupled assay, primary screen (AID 1209)
Estrogen receptor = target: T9, Estrogen receptor (Homo sapiens, UniProt P03372); test: ERα coactivator recruitment enhancers – biochemical, TR-FRET, ERα LBD, dose response (AID 737)
T9 sequence (P03372 whole entry): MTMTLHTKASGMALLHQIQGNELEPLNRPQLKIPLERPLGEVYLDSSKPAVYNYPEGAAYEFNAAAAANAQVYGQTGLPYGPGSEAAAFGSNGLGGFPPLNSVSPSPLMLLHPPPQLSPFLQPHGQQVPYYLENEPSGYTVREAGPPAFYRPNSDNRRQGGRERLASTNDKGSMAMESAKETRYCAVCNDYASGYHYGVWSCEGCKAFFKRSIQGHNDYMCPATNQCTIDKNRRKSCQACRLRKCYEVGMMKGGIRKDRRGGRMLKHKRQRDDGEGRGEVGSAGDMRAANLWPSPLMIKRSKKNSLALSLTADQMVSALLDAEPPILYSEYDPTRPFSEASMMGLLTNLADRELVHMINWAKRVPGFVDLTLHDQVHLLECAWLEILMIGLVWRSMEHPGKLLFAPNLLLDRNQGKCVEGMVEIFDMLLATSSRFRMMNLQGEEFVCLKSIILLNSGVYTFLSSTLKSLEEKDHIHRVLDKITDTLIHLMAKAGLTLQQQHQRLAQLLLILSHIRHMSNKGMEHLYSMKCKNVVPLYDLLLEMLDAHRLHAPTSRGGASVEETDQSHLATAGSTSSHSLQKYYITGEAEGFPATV

[16] = target: T6, Neuropeptide Y receptor type 2; format: functional, cell-based
[17] = target: T7, Neuropeptide Y receptor type 1; format: functional
[18] = mitochondrial function rescue without frataxin homolog – Friedreich's ataxia, plus single-dose screen, dose response (AID 1465); format: functional;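 also: yeast depleted of Yfh1p frataxin homolog grown on glycerol needing respiration; WST-1 tetrazolium dye reduction as measure of cellular dehydrogenase metabolic activity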

T7 sequence (P25929 whole entry): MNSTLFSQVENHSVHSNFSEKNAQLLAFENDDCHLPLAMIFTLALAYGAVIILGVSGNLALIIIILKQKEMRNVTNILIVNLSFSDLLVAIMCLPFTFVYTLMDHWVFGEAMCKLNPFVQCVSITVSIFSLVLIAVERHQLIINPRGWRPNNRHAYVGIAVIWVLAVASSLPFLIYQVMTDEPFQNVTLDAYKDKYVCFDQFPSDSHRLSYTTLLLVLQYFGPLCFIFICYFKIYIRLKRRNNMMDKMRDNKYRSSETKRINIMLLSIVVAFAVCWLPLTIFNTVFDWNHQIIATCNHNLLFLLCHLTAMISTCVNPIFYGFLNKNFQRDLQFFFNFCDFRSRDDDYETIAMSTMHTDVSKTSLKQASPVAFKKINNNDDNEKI
T6 sequence (P49146 whole entry): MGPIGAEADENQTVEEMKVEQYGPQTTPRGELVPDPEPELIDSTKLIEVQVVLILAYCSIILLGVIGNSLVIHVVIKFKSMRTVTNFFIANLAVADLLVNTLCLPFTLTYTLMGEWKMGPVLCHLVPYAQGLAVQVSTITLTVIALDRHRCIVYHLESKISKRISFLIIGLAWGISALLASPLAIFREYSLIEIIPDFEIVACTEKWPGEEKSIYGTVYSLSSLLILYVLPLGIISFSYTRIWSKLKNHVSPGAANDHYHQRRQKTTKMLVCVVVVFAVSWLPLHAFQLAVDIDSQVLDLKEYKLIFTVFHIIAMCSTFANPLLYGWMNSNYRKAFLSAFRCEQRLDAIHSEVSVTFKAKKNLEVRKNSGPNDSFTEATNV
FAD-linked sulfhydryl oxidase ALR, sequence (P55789 whole entry): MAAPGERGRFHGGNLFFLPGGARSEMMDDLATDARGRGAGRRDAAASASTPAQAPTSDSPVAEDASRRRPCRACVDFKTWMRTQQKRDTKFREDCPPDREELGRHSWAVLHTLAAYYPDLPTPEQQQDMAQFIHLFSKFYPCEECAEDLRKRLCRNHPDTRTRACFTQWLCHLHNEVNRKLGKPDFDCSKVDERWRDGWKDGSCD
Trypsin, sequence (P00761 whole entry): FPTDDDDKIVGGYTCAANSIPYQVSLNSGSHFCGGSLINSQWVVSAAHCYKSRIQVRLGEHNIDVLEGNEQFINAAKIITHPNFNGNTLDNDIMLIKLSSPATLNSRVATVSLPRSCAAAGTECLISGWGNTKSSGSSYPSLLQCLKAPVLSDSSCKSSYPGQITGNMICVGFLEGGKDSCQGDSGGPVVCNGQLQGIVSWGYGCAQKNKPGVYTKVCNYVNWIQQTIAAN
Lytic switch protein BZLF1, sequence (P03206 whole entry): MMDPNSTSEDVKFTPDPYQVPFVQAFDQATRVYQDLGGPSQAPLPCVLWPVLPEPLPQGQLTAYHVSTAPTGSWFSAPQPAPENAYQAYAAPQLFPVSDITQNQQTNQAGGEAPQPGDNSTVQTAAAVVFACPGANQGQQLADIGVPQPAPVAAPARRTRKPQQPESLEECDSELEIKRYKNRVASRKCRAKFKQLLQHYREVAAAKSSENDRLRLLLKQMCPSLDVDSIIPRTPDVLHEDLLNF
Epstein-Barr nuclear antigen 1, sequence (P03211 whole entry): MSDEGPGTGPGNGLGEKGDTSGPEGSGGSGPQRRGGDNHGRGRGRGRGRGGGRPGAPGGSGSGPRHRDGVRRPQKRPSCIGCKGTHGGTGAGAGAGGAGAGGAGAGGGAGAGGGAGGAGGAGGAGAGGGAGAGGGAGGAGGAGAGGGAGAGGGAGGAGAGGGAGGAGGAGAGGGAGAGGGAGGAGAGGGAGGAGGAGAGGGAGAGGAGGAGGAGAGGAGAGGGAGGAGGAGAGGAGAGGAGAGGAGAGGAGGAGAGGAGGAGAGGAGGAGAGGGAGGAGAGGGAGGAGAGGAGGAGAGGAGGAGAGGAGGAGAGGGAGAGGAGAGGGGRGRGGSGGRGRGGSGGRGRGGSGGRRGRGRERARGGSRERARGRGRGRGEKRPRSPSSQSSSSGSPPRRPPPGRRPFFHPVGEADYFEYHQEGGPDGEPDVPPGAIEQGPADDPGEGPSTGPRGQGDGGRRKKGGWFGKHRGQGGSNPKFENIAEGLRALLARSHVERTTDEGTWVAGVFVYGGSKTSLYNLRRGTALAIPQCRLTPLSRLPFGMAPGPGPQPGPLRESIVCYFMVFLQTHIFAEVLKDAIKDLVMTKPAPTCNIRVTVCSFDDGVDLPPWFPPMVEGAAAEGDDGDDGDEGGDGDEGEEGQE
Bcl-2-like protein 10, sequence (Q9HD36 whole entry): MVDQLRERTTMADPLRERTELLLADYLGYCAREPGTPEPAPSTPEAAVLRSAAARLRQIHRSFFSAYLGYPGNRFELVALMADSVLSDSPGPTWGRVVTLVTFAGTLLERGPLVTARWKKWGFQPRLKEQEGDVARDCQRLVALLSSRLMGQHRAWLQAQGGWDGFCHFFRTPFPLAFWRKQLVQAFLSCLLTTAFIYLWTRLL
NADPH oxidase 1, sequence (Q9Y5S8 whole entry): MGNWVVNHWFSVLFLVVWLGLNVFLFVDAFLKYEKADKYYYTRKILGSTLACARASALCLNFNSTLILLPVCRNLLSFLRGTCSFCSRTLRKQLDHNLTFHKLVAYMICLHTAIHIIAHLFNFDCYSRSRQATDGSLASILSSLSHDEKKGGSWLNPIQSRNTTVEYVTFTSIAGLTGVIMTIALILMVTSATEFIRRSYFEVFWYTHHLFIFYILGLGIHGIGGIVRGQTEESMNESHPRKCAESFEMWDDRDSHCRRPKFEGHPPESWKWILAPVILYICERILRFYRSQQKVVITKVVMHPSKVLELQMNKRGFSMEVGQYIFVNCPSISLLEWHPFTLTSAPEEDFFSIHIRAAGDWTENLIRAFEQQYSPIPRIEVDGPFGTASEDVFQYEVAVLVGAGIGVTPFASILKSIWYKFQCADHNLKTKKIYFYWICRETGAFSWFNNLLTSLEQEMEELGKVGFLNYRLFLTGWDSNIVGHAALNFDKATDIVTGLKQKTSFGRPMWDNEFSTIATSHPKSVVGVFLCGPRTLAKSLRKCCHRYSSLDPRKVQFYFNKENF

C=CCn1c(COc2ccc3c(c2)CCCC3)nnc1SCC(=O)Nc1cccc(SC)c1
IC50 [1]: > 100 µM (active)

O=[N+]([O-])c1ccccc1C1Nc2cccc3cccc(c23)N1
CC50 (HeLa): > 99 µM (not active) | CC50 [2]: 14.6 µM (active) | IC50 (cells): 27.2 µM (active)

Nc1c(C(=O)Nc2cccc(C(=O)O)c2)sc2nc3c(cc12)CCCC3
IC50 [3]: > 39.8 µM (not active) | IC50 [4]: 7.47 µM (active) | AC50 [5]: 3.06 µM (active) | AC50 (Trypsin): 10.5 µM (active) | AC50 (CAAX prenyl protease 2): 47.8 µM (active) | IC50 [6]: 15.1 µM (active) | AC50 [7]: 3.29 µM (active) | IC50 [8]: 31 µM (active) | IC50 (Caspase-3): 71.6 µM (active)

Nc1ccc(S(=O)(=O)O)c2cccc(O)c12
EC50 (Bcl-2-like protein 10): 1.05 µM (active)

COc1cc(-c2nc(-c3ccccc3)c(-c3ccccc3)[nH]2)cc(OC)c1O
IC50 (NADPH oxidase 1): 0.517 µM (active)

Cc1cc(C(=O)OCC(=O)c2c(N)n(C)c(=O)n(C)c2=O)c(C)n1-c1ccccc1
IC50 [9]: > 111 µM (not active) | IC50 [10]: 13.1 µM (not active)

Cc1ccc(COC(=O)c2nn(-c3ccccc3)nc2N)cc1
IC50 [11]: 10.6 µM (not active) | IC50 [12]: 12 µM (not active)

Cn1cnnc1SCc1ccc(C(=O)N/N=C(\CCC(=O)O)c2ccc(C(C)(C)C)cc2)cc1
AC50 [13]: 0.755 µM (active) | IC50 [14]: > 50 µM (not active) | IC50 [15]: > 50 µM (not active)

CCOc1ccccc1-c1nc(-c2ccc(NC(=O)c3ccc(Br)o3)cc2)no1
EC50 (Estrogen receptor): 12.7 µM (active)

Cc1ccc(C)c(NS(=O)(=O)c2cc(C(=O)Nc3ccccc3-c3ccccc3)ccc2C)c1
IC50 [16]: 0.298 µM (active) | IC50 [17]: > 35 µM (not active)

CC(C)NC(=O)/C(C#N)=C\c1ccc(N(C)C)o1
EC50 [18]: > 100 µM (active)
